Experimental data reported in patent US20140294856A1, “COMBINATION TREATMENT COMPRISING A HDAC6 INHIBITOR AND AN AKT INHIBITOR” (priority 2011, published 2014).
In brackets after ≈: the same amount, converted by molar mass. Like-named read-outs stand apart in the source and are kept apart here.

Key:
[1] = system: HCT116 xenograft; test: Differential gene expression, affymetrix human genome array; format: in vivo, mice
[2] = system: HCT116 cells; test: Growth inhibition (GI50); format: cell-based, human
Source text: Different treatment scheduling are shown. […] The results are mean of n=6.

[3] = system: Ishikawa; test: Phospho-AKT levels by western blotting; format: cell-based; settings: endometrial cancer cell line Ishikawa (PTEN-null)
[4] = system: CHO cells deficient in DNA repair; test: Growth inhibition in cell lines deficient in DNA repair machinery; format: cell-based
[5] = Stability in PBS at acidic pH, HPLC-UV; format: physicochemical; settings: down to pH 2, cell free, 10 μM in PBS, 1 hour, 37° C.
Protocol: FIG. 3. Impact of the pH on the stability of HDAC-C1A. HDAC-C1A was incubated at 10 μM in PBS for 1 hour at 37° C. and the concentration was evaluated using HPLC-UV. The pH of PBS was adjusted using HCL.
The drug was stable after oral, parenteral and intravenous administration for 24 h (last time point examined). […] The Cma and AUC0-24h following i.p. injection (20 mg/kg) were 3.2 μg/mL and 11.2 μg/mL*h, respectively. […] The acid instability of HDAC-C1A could therefore be improved by enteric coating as a means to avoid breakdown in the stomach. […] HDAC-C1A was also tested in HCT116 human colon cancer xenograft model using a refined dose and scheduling. […] This dose was non-toxic (no reduction in body weight) (FIG. 5.D). The acetylated form of α-tubulin (biomarker of response to HDAC6 inhibition) could be observed after 14 days of treatment and could be detected as early as 6 hours after the 1st injection (FIG. 5.E.). The acetylated form of Histone 3 (biomarker of response of class I histones) could be observed as early as 2 hours after the 1st injection and remain after 14 days of treatment (FIG. 5.E).

[6] = target: HDAC6 (Homo sapiens, UniProt Q9UBN7); test: Enzyme inhibition activity, Fluor-de-Lys kit; format: biochemical
Chain of HDAC6 (Q9UBN7 whole entry): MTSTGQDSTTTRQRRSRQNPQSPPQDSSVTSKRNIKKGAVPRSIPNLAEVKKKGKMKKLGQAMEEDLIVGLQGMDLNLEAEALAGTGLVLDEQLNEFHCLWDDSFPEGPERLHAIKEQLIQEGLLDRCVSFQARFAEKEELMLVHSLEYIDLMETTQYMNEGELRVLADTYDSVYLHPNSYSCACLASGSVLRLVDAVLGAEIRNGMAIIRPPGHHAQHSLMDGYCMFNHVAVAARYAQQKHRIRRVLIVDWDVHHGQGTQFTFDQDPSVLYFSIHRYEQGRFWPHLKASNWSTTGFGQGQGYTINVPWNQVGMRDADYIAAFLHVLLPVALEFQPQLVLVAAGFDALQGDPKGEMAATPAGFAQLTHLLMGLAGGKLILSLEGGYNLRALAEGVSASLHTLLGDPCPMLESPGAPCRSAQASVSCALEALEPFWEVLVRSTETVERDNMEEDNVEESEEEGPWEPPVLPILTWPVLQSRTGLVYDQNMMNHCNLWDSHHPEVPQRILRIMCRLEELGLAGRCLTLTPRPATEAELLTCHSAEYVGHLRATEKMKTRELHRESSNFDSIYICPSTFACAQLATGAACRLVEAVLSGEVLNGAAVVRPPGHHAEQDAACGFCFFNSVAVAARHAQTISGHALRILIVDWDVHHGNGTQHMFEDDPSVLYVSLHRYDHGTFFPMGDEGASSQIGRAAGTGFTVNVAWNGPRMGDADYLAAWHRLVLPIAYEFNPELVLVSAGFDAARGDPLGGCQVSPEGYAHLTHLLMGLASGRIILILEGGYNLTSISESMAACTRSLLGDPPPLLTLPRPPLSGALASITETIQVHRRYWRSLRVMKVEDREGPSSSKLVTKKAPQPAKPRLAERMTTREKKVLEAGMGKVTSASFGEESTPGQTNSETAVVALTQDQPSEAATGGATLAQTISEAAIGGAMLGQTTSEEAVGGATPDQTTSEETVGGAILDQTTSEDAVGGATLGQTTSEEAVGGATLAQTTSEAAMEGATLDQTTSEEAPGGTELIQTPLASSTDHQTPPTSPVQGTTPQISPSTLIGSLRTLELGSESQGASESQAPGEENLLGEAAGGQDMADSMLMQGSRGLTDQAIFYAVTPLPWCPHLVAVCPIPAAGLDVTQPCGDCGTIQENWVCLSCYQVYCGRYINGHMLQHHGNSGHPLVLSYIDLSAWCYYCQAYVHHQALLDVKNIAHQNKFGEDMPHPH
Source text: FIG. 20 (Table 1): Enzyme inhibition activity using HeLa nuclear extract and the Fluor-de-Lys kit.
HSP90 protein expression was not altered (FIG. 2).

[7] = target: P-gp (Homo sapiens, UniProt P08183)
Chain of P-gp (P08183 whole entry): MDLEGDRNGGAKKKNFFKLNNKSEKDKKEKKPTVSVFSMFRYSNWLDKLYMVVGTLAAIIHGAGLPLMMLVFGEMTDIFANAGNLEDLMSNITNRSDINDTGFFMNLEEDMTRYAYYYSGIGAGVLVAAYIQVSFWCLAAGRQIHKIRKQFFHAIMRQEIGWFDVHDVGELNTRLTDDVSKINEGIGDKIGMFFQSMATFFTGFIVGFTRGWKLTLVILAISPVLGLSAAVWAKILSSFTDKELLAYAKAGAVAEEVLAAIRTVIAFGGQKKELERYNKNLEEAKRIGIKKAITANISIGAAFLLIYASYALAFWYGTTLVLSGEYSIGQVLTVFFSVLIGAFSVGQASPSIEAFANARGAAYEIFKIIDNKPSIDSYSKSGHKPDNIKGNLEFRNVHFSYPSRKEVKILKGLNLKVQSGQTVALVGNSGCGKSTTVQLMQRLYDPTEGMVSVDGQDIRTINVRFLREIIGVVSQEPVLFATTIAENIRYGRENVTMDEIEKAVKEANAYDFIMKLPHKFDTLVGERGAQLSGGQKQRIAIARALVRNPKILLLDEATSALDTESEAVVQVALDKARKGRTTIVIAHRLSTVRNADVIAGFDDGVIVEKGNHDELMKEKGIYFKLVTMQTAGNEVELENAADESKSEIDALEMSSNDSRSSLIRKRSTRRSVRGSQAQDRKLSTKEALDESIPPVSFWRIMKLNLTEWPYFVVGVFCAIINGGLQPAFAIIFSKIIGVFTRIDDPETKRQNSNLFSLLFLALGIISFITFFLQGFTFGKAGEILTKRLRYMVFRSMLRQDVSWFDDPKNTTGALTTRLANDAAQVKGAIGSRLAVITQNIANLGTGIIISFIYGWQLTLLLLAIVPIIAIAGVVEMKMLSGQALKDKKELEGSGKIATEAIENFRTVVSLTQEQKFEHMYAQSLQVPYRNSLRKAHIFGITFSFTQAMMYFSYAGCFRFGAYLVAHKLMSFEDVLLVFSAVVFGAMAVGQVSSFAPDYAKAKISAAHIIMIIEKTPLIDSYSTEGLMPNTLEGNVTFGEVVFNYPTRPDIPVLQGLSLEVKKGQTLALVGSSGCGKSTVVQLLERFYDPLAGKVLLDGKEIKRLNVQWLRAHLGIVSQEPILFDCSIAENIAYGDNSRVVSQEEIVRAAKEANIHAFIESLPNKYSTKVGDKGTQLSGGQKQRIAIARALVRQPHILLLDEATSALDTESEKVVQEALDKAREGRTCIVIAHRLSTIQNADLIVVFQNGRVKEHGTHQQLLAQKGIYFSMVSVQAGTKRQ

[8] = system: KELLY; test: Growth inhibition, SRB assay, 72 hours; format: cell-based; settings: KELLY neuroblastoma
[9] = system: HCT116 human colon cancer xenograft
[10] = target: MRP1 (Homo sapiens, UniProt P33527); test: Impact of MRP1 on cytotoxicity, MK-571 pre-treatment in A549 cells
Chain of MRP1 (P33527 whole entry): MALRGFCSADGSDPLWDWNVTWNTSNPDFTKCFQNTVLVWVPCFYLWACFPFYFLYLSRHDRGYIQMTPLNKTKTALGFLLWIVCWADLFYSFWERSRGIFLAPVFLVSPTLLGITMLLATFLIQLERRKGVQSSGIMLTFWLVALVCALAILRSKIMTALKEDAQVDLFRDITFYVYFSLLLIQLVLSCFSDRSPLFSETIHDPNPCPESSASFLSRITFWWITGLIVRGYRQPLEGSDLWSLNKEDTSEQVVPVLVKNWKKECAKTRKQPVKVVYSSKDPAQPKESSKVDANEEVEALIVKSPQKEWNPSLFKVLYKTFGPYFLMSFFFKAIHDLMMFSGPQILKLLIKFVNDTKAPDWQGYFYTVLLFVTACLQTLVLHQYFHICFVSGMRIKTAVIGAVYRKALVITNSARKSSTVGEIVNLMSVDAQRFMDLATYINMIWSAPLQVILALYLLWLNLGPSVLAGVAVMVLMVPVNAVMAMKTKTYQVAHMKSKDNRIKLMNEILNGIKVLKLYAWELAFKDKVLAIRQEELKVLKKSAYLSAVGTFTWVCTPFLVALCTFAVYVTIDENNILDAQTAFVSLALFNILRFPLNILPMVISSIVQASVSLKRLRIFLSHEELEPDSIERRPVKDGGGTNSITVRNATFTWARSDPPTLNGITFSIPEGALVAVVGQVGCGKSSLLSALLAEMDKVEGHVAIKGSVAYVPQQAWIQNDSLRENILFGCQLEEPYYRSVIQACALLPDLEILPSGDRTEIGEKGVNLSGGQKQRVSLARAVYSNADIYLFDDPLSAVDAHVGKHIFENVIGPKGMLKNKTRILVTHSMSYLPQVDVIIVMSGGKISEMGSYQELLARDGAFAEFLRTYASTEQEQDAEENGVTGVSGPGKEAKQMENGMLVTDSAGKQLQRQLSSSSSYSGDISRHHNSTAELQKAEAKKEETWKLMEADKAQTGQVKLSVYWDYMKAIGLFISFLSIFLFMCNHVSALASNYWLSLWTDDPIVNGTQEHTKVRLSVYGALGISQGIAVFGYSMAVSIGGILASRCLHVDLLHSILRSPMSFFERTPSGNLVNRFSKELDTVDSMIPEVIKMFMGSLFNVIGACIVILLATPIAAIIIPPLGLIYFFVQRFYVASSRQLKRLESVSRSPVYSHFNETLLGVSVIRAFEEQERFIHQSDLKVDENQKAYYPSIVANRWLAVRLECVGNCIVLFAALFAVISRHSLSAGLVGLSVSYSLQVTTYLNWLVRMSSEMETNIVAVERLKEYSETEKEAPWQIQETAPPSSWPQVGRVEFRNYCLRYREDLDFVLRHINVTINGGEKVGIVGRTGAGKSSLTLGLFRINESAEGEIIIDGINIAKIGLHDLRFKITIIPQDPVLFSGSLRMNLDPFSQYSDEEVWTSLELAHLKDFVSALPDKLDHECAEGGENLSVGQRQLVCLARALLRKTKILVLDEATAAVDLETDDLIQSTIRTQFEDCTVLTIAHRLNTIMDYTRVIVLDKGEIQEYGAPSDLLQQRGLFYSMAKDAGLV
Protocol: The impact of ABC transporters on the cytotoxicity of HDAC-C1A was assessed using cell lines with differential expression of the ABC transporters and by using inhibitors.

[11] = 14 days, 40 mg/kg every other day
[12] = homologous recombination repair
[13] = HDAC-C1A 20 mg/kg bid combined with API-2 1 mg/kg/d
[14] = HDAC-C1A combined with BEZ-235 20 mg/kg/day, given 8 hours apart

Compound: CC(/C=C/C(=O)NO)=C\c1ccc(NS(=O)(=O)c2ccc(N(CCCl)CCCl)cc2)cc1 [HDAC-C1A]
- number of genes deregulated (of 20 000 tested) ([1]; 24 hours, 40 mg/kg): 20 genes
- number of genes up-regulated ([1]; 24 hours, 40 mg/kg): 17
- ALDH1 up-regulation ([1]; 14 days of treatment): ~1.6 fold
- Gasdermin D up-regulation ([1]; 14 days of treatment): ~1.5 fold
- K AZ up-regulation ([1]; 14 days of treatment): ~1.5 fold
- KLK3 down-regulation ([1]; 14 days of treatment): ~1.5 fold
- RAD23B up-regulation ([1]; 14 days of treatment): ~1.8 fold
- SYNDECAN-2 down-regulation ([1]; 14 days of treatment): ~1.7 fold
- UNG up-regulation ([1]; 14 days of treatment): ~1.7 fold
- number of genes deregulated by at least 1.5 fold [1, 11]: 132 genes
- share of genes deregulated [1, 11]: < 0.7%
- mRNA levels of PTEN vs vehicle ([1]; after 1 and 14 days): not altered
- GI50 [2]: 3.7 µM
- P-AKT levels increased [3]: not
- sensitivity (GI50 ratio) of cells deficient in XRCC3 vs proficient [4, 12]: as sensitive as the parental proficient cell lines
- sensitivity (GI50 ratio, fold) of cells deficient in XRCC2 vs proficient [4, 12]: as sensitive as the parental proficient cell lines
- sensitivity (GI50 ratio, fold) of cells deficient in XRCC5 vs proficient ([4]; non homologous end joining): as sensitive as the parental proficient cell lines
- sensitivity (GI50 ratio) of cells deficient in ERCC1 vs proficient ([4]; nucleotide excision repair): as sensitive as the parental proficient cell lines
- sensitivity of cells deficient in XPB vs proficient ([4]; nucleotide excision repair): as sensitive as the parental proficient cell lines
- stability across acidic pH [5]: relative acidic degradation
- IC50 for HDAC6 [6]: 63 ng/mL
- fold resistance (GI50 ratio) P-gp over-expressing 3T3 vs parental [7]: 17 fold
- GI50 [8]: 0.14 µg/mL (≈ 0.281 µM)
- TGD2x [9, 13]: 2.7 ± 1.3 days
- TGI compared with vehicle [9, 13]: 54%
- TGD2x ([9]; HDAC-C1A alone 20 mg/kg/day): 3.8 ± 1.3 days
- TGI ([9]; HDAC-C1A alone 20 mg/kg/day): 69%
- TGD2x [9, 14]: 8.2 ± 1.3 days
- TGI [9, 14]: 74%
- TGI ([9]; HDAC-C1A combined with BEZ-235, given 30 minutes apart): 115%
- TGD2x ([9]; i.p. 20 mg/kg b.i.d.): 5.7 ± 1.4 days
- TGI compared with vehicle ([9]; i.p. 20 mg/kg b.i.d.): 78%
- toxicity (body weight) ([9]; i.p. 20 mg/kg b.i.d.): non-toxic
- substrate of MRP1 [10]: non-substrates
